From PMC8150775, “Repositioning Azelnidipine as a Dual Inhibitor Targeting CD47/SIRPα and TIGIT/PVR Pathways for Cancer Immuno-Therapy” (Biomolecules, 2021)

Tests used:
human CD47/SIRPα = target: T1, human CD47/SIRPα (Homo sapiens, UniProt P78324); experiment: Blocking assay, human SIRPα protein binding to CHOK1-hCD47 cells; settings: concentration gradient; read-out: IC50, blocking human CD47/SIRPα (hSirpα binding)
T1 construct: purchased ACRO Biosystem SIA-H5251; host or cells: soluble protein purchased; CD47 on CHOK1-hCD47 cells (lenti-viral transfection)
Method: The abilities of small molecule inhibitors (SMIs) (purchased from TargetMol, Shanghai, China) to block the binding of SIRPα protein to CHOK1-CD47 cells or PVR protein to CHOK1-TIGIT cells were determined by flow cytometry, as previously reported. The SMIs at indicated concentrations were incubated with Fc-tagged SIRPα or PVR protein for 30 min at 4°C, followed by incubating with the indicated cells for another 30 min. Human SIRPα protein (SIA-H5251, ACRO Biosystem, Beijing, China), mouse SIRPα protein (SIA-M5258, ACRO Biosystem, Beijing, China), human PVR protein (CD5-H82F6, ACRO Biosystem, Beijing, China), and mouse PVR protein (50259-M03H, Sino Biological, Beijing, China) were used. PE-conjugated anti-human IgG antibody was used to detect the Fc protein bind to cells. Cells incubated with the Fc proteins and anti-human IgG antibody without the SMIs serve as the positive control. The mean fluorescent intensity (MFI) of each sample was detected and recorded by a flow cytometry. The blocking efficacy of the SMIs was calculated as the equation: (MFI of the positive control-MFI of the SMI)/MFI of the positive control × 100%.

IL-12 p40 = system: IL-12 p40; design: method as in PMID 19438591; settings: cited from earlier work
MC38 tumors = experiment: MC38 tumor model, alone or combined with radiotherapy, with ex vivo analysis; type: in vivo, C57BL/6 mice
Method: BABL/c mice were subcutaneously (s.c.) injected with 2 × 10^5 CT26 cells on the right back, and C57BL/6 mice were injected with 1 × 10^6 MC38 cells. One week later, tumor-bearing mice were randomized into indicated groups, and intraperitoneal (i.p.) injected with azelnidipine or normal saline every day for two weeks. Tumor volumes were measured every other day by the (a) length, (b) width, and (c) height and calculated as volume (V) = a × b × c/2. For the combinational model of azelnidipine and radiotherapy (RT), MC38 tumor-bearing mice received irradiation (IR) when the tumors reached 80–100 mm^3. The mice received one dose of 20 Gy irradiation at the tumor local site, and followed by the treatment of azelnidipine.
Tumor-bearing mice were sacrificed at the end of the treatment. The tumors were dissected and digested into single cell with an enzyme cocktail of 100 U/mL collagenase IV; and Dnase I. The infiltration of CD8^+ T cells at the tumor site was detected by flow cytometry by staining of anti-mouse CD45, anti-mouse CD3, anti-mouse CD8α or isotype control. The MDSCs at the tumor site were analyzed by staining of anti-mouse CD45, anti-mouse CD11b, anti-mouse Ly6C, and anti-mouse Ly6G. […] The frequency of IFN-γ secreting CD8^+ T cells were counted according to the fluorescence minus one (FMO) control with the isotype control of IFN-γ antibody. […]

CD47 = experiment: Flow cytometry of CD47 expression on CT26 cells in vitro; type: cell-based, mouse; settings: 20 μM, 24 h
Method: Cells in good growth condition were harvested and used to detect the expression of CD47 and PVR. Antibodies anti-human CD47 APC, anti-human PVR PE, anti-mouse-CD47 APC, anti-mouse-PVR APC, and matched isotype controls were purchased from eBioscience, San Diego, CA, USA. The effects of azelnidipine on the expression of CD47 and PVR was determined by incubating CT26 cells with 20 μM of azelnidipine for 24 h, or directly analyzing the tumor cells from tumor tissues of CT26-bearing mice treated with or without azelnidipine.
Figure S3. The effects of Azelnidipine on the expression of CD47 and PVR on CT26 tumor cells. (A and B) CT26 cells were incubated with 20 μM Azelnidipine or vehicle control for 24h, and analyzed the expression of CD47 (A) and PVR (B). The gray shaded histogram represents the isotype, the red line represents the cells treated with vehicle control, and the blue line represents the cells treated with Azelnidipine. (C and D) Tumor cells (CD45-) derived from the tumor tissues of CT26 tumor-bearing mice treated with normal saline (NS) or 5 mg/kg Azelnidipine for twelve days, were analyzed for the expression of CD47 (C) and PVR (D). n.s. means not […]
(1 picture or pasted object on this page, not shown here)

T1 sequence (P78324 31-370 limits assumed): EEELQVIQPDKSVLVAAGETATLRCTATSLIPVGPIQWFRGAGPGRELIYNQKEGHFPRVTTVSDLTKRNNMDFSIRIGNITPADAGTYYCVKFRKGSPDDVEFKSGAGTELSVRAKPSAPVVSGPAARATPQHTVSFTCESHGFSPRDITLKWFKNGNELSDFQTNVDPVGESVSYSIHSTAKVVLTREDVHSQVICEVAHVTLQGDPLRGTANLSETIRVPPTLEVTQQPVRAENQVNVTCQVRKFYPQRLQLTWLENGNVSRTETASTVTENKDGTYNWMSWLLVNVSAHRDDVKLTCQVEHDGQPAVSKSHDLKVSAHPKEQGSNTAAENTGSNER

In the case of CC1=C(C(=O)OC(C)C)C(c2cccc([N+](=O)[O-])c2)C(C(=O)OC2CN(C(c3ccccc3)c3ccccc3)C2)=C(N)N1 (centres unmarked) [Azelnidipine], the IC50 (human CD47/SIRPα) is listed as about 36 µM, the “secretion of IL-12 p40 mediated by immune complex” value (IL-12 p40) is listed as “enhance the secretion of IL-12 p40” and the “growth of MC38 tumors, combination with IR” value (MC38 tumors; 5 mg/kg i.p. each day combined with 20 Gy local IR) is listed as “remarkably suppress tumor growth”. The “growth of MC38 tumors” value (MC38 tumors; 2 and 5 mg/kg i.p. each day for 2 weeks, alone) was “significantly restrict” and the “expression of CD47 on CT26 cells” value (CD47) was “without suppressing”.
